According to US12036237B2, “Bromide source for use in treating autism spectral disorder” (INSERM (INSTITUT NATIONAL DE LA SANTE ET DE LA RECHERCHE …, priority 2016, dated 2024):
Entries after “also recorded” stand apart in the source; their conditions may differ.

Experiments:
[1] = tested on: Shank3B−/− mice; experiment: Direct social interaction test; format: in vivo
Protocol: (§1) Sodium bromide (anhydrous, Sigma-Aldrich, Saint-Quentin, France) dissolved in saline solution (NaCl, 0.9%) at the dose of 250 or 500 mg/kg, or vehicle (NaCl, 0.9%), was administered intraperitoneally once a day for 19 days in a volume of 20 ml/kg. On testing days, bromide was administered 30 min before behavioural assays. Bumetanide (Tocris, provided by Bio-Techne, Lille, France) dissolved in NaCl 0.9% at the dose of 0.5 mg/kg (Deidda et al, 2015) or vehicle was administered intraperitoneally once a day for 19 days in a volume of 20 ml/kg.
(§2) Behavioural assays started after a week of daily bromide (or bumetanide) treatment.
(§3) Direct social interaction.

[2] = tested on: Fmr1−/− mice; experiment: Direct social interaction test; format: in vivo
Protocol: as §1, §2, §3

[3] = tested on: Oprm1−/− mice; experiment: Novelty-suppressed feeding test; conditions: for latency to feed: Oprm1 wild-type and null mice, bromide 250, 500 mg/kg
[4] = tested on: Oprm1−/− mice; experiment: Marble burying test; conditions: bromide 125, 250, 500 mg/kg i.p. daily
[5] = tested on: Shank3B−/− mice; experiment: Motor stereotypies scoring; format: in vivo; conditions: bromide 250 mg/kg i.p. daily
Protocol: as §1, §2

[6] = tested on: Fmr1−/− mice; experiment: Motor stereotypies scoring; format: in vivo; conditions: bromide 250 mg/kg i.p. daily
Protocol: as §1, §2

[7] = tested on: Oprm1−/− mice; experiment: Motor stereotypies scoring
[8] = tested on: Shank3B−/− mice; experiment: Three-chamber social novelty preference test; format: in vivo; conditions: bromide 250 mg/kg i.p. daily
Protocol: as §1, §2
(§4) Three-chamber social novelty preference test.

[9] = tested on: Fmr1−/− mice; experiment: Three-chamber social novelty preference test; format: in vivo; conditions: bromide 250 mg/kg i.p. daily
Protocol: as §1, §2, §4

[10] = tested on: Oprm1−/− mice; experiment: Y-maze exploration
[11] = tested on: Shank3B−/− mice; experiment: Novelty-suppressed feeding test; format: in vivo; conditions: bromide 250 mg/kg i.p. daily
Protocol: as §1, §2
(§5) Novelty-suppressed feeding. […] Immediately after an eating event, the mouse was transferred back to the home cage (free from cage-mates) and allowed to feed on lab chow for 5 min.

[12] = tested on: Fmr1−/− mice; experiment: Novelty-suppressed feeding test; format: in vivo; conditions: bromide 250 mg/kg i.p. daily
Protocol: as §1, §2, §5

[13] = tested on: Oprm1−/− mice; experiment: Direct social interaction test
[14] = literature statement (Romermann et al, 2017); cited from earlier work
[15] = tested on: Fmr1−/− mice; experiment: Marble burying test; format: in vivo; conditions: Fmr1−/− and Fmr1+/+ mice; bromide 250 mg/kg i.p. daily
Protocol: as §1, §2

[16] = social interaction and three-chamber tests, bromide 250 mg/kg
[17] = Example 2, Oprm1 wild-type and mutants, bromide 250, 500 mg/kg
[18] = Example 2, Oprm1 wild-type and mutants, bromide 250, 500 mg/kg, listed as Bromide
[19] = Example 2, Oprm1−/− mice, bromide 250, 500 mg/kg
[20] = Example 2, bromide 250, 500 mg/kg
[21] = Oprm1−/− and wild-type, bromide 125, 250, 500 mg/kg i.p. daily
[22] = Oprm1−/− mice, bromide 125, 250, 500 mg/kg i.p. daily
[23] = all animals, bromide 125, 250, 500 mg/kg i.p. daily
[24] = Example 2, Oprm1−/− mice, bromide 250, 500 mg/kg i.p. daily
[25] = Example 2, male and female Oprm1−/− mice, bromide 250, 500 mg/kg
[26] = Oprm1−/− mice, bromide 125, 250, 500 mg/kg i.p. daily vs saline
[27] = Oprm1−/− mice, bumetanide 0.5 mg/kg

[Br-].[Na+] [bromide, Sodium bromide]
number of following episodes ([1]; bromide 250 mg/kg i.p. daily): restored to wild-type levels; also recorded: reduced
number of grooming episodes ([1]; bromide 250 mg/kg i.p. daily): reduced
number of grooming episodes occurring after a social contact ([1]; bromide 250 mg/kg i.p. daily): reduced
number of, time spent in and duration of paw contacts ([1]; bromide 250 mg/kg i.p. daily): restored to wild-type levels; also recorded: reduced
time spent in nose contact, number and duration of nose contacts ([1]; bromide 250 mg/kg i.p. daily): restored to wild-type levels; also recorded: reduced
sociability parameters (overall) [1, 16]: efficiently restores
number of following episodes ([2]; bromide 250 mg/kg i.p. daily): normalized
number of grooming episodes ([2]; bromide 250 mg/kg i.p. daily): reduced
number of grooming episodes occurring after a social contact ([2]; bromide 250 mg/kg i.p. daily): reduced
number of, time spent in and duration of paw contacts ([2]; bromide 250 mg/kg i.p. daily): normalized
time spent in nose contact and duration of nose contacts ([2]; bromide 250 mg/kg i.p. daily): normalized
time spent in social contact ([2]; bromide 250 mg/kg i.p. daily): normalized
sociability parameters (overall) [2, 16]: efficiently restores
food intake in home cage ([3]; Example 2, Oprm1 mutants): increased food intake in mutants
latency to feed ([3]; Example 2): drastically reduced
latency to feed ([3]; Example 2, listed as Bromide): decreased in wild-type, and normalized in mu opioid receptor null mice
gender influence on latency to feed ([3]; Example 2, bromide 250 mg/kg): more effective in males than in females
dose at which the maximal effect on latency to feed was reached ([3]; Example 2, female Oprm1 null mice): 500 mg/kg
food intake in home cage ([3]; Example 2, female wild-type animals, bromide 250 mg): ate more than saline-treated animals
dose at which the maximal effect on latency to feed was reached ([3]; Example 2, male Oprm1 null mice): 250 mg/kg
feeding latency ([3]; Oprm1−/− mice, bromide, all three doses (125, 250, 500 mg/kg)): efficiently reduced the feeding latency to wild-type level; also recorded: normalized
behavioural signs of anxiety (overall) ([3]; Oprm1−/− mice, marble burying and novelty-suppressed feeding, bromide 125, 250, 500 mg/kg): efficiently reduced; also recorded: relieved
food intake back in the home cage ([3]; wild-type and mutant mice, bromide 125, 250, 500 mg/kg i.p. daily): increased
number of marbles buried [4]: reduced; also recorded: diminished
number of rearing episodes ([5]; Shank3B−/− and wild-type): no effect
motor stereotypies (overall) ([5]; Shank3B−/− mice): efficiently reduced; also recorded: relieves
number of circling episodes ([5]; Shank3B−/− mice): normalized; also recorded: reduced
number of grooming episodes ([5]; Shank3B−/− mice): normalized
number of shakes ([5]; Shank3B−/− mice): normalized; also recorded: reduced
number of rearing, grooming or burying episodes ([6]; Fmr1 knockout and wild-type): no effect
motor stereotypies (overall) ([6]; Fmr1−/− mice): efficiently reduced; also recorded: relieves
number of circling episodes ([6]; Fmr1−/− mice): normalized; also recorded: reduced
number of shakes ([6]; Fmr1−/− mice): normalized; also recorded: reduced
duration of burying events ([6]; all animals (Fmr1 line)): reduced
time spent burying ([6]; all animals (Fmr1 line)): reduced
number of grooming episodes [7, 17]: increased grooming episodes in wild-type (WT) animals without effects in mu opioid receptor knockouts
number of head shakes [7, 17]: increased the number of head shakes in control mice to the level of mutants
number of grooming episodes [7, 18]: increased the number of grooming episodes and male and female wild-type mice, but not in mutants
number of head shakes [7, 18]: increased the number of head shakes in male and female wild-type mice, not in mutants
motor stereotypies (overall) [7, 19]: little effect
time spent burying ([7]; Example 2, all treated animals, bromide 250, 500 mg/kg): decreased
circling behavior [7, 20]: little effect
number of burying episodes and their duration [7, 20]: did not modify
circling behavior ([7]; Example 2, bromide 250, 500 mg/kg, listed as Bromide): no effect
number of rearing episodes ([7]; Example 2, males since 250 mg/kg, females at 500 mg/kg only): increased the number of rearing episodes in wild-type and not knockout animals
number of grooming episodes [7, 21]: dose-dependently increased the number of grooming episodes, but in wild-type animals only; also recorded: increased grooming occurrence in wild-type animals only
motor stereotypies (shakes and circling), overall [7, 22]: efficiently reduce; also recorded: demonstrated efficacy in reducing; also recorded: significant decrease
number of circling episodes [7, 22]: normalized
number of circling episodes ([7]; Oprm1−/− mice, bromide 125, 250, 500 mg/kg i.p. daily, listed as Bromide): decreased
number of shakes ([7]; Oprm1−/− mutant mice, bromide 125, 250, 500 mg/kg i.p. daily): reduced their occurrence
number of shakes ([7]; Oprm1−/− mutant mice, bromide 125, 250, 500 mg/kg i.p. daily, listed as Bromide): decreased
number of rearing episodes ([7]; all animals (Oprm1−/− and wild-type), bromide 125, 250, 500 mg/kg i.p. daily): increased
number of burying episodes [7, 23]: dose-dependently reduced; also recorded: dose dependently reduced
time spent burying [7, 23]: dose-dependently reduced
number of shakes ([7]; wild-type (Oprm1+/+) mice, bromide 125, 250, 500 mg/kg i.p. daily): dose-dependently increased
number of shakes ([7]; wild-type (Oprm1+/+) mice, bromide 125, 250, 500 mg/kg i.p. daily, listed as Bromide): increased
number of close contacts with the mouse versus the toy ([8]; Shank3B line): no significant effect
preferential time spent in the compartment with the mouse versus the toy ([8]; Shank3B line): no significant effect
duration of close contacts with the mouse versus the toy ([8]; Shank3B−/− mice): increased; also recorded: restored
preference in time spent in close contact with the mouse versus the toy ([8]; Shank3B−/− mice): increased; also recorded: restored
number of close contacts with the mouse ([9]; Fmr1 knockout or wild-type): no significant effect
preferential time spent in the compartment with the mouse ([9]; Fmr1 knockout or wild-type): no significant effect
duration of close contacts with the mouse versus the toy ([9]; Fmr1−/− mice): increased; also recorded: restored
preference in time spent in close contact with the mouse versus the toy ([9]; Fmr1−/− mice): increased; also recorded: restored
ratio of same arm returns (cognitive stereotypies, perseveration) [10, 19]: normalized; also recorded: relieved; also recorded: abolished
spontaneous alternation [10, 19]: restored
number of arm entries (index of general locomotor activity) ([10]; Example 2, both genotypes and genders, bromide 250 mg/kg): increased
number of alternate arm returns ([10]; Example 2, more in mutants than wild-type, more in females than males): increased; also recorded: tendency to increase
rate of alternate arm returns [10, 21]: increasing the rate
perseverative same arm returns (cognitive stereotypies) [10, 22]: efficiently reduced; also recorded: demonstrated efficacy in reducing; also recorded: dose-dependently decreased; also recorded: significant decrease
food intake back in the home cage ([11]; Shank3B mutants): did not rescued
exacerbated anxiety (overall) ([11]; Shank3B−/− mice): can reduce
feeding latency ([11]; Shank3B−/− mice): normalized
food intake back in the home cage ([12]; Fmr1 line): did not modify
exacerbated anxiety (overall) ([12]; Fmr1−/− mice): can reduce
feeding latency ([12]; Fmr1−/− mice): reduced the feeding latency to wild-type level; also recorded: decreased
number of nose contacts and following episodes ([13]; Example 2, FIG. 13A, male mutants, both doses): increased
total amount of time spent in social contact ([13]; Example 2, FIG. 13A, male wild-type and knockout mice): increased
total time in social contact, number of nose contacts and following episodes ([13]; Example 2, FIG. 13B, female mutant mice only, dose dependent): increased
number of rearing episodes (activity) ([13]; Example 2, Oprm1 null mice, bromide 250 mg/kg, more in males than females): increased
social interaction (overall) [13, 19]: able to restore social interaction
number of following episodes [13, 24]: increasing
number, time spent in and duration of nose and paw contacts [13, 24]: increasing
time spent in close contact [13, 24]: increasing
gender influence on the increase of social interaction parameters ([13]; Example 2, Oprm1−/− mice, effects since 250 mg/kg in males, only at the highest dose in females): more significantly in males than in females
duration of grooming episodes [13, 25]: reduced
number of grooming episodes [13, 25]: reduced
number of grooming episodes occurring immediately after a close contact [13, 25]: reduced
time spent grooming [13, 25]: reduced
direct social interaction (overall) [13, 26]: can restore direct social interaction; also recorded: significantly improved social interaction; also recorded: increased direct social interaction
number of following episodes [13, 26]: dose-dependently increasing; also recorded: increased
number of grooming episodes [13, 26]: reduced
number of grooming episodes occurring immediately after a social contact [13, 26]: reduced
number, time spent in and duration of nose and paw contacts [13, 26]: dose-dependently increasing; also recorded: increased
total time spent in social contact [13, 26]: dose-dependently increasing; also recorded: increased
efficiency on social interaction parameters in male compared with female mice ([13]; Oprm1−/− mice, bromide 250 and 500 mg/kg i.p. daily): more efficient in increasing social interaction parameters
increases in social contact time, nose contacts, following episodes and paw contacts, bromide compared with bumetanide [13, 27]: bigger increases
suppressive effects on grooming episodes incl. those after a social contact, bromide compared with bumetanide [13, 27]: comparable
beneficial effects on sociability, bromide compared with bumetanide ([13]; Oprm1−/− mice, social interaction and three-chamber tests, bumetanide at 0.5 mg/kg, 0.5 mg/kg): more significant; also recorded: superior efficacy
ability to cross the blood brain barrier [14]: easily cross this barrier
number of marbles buried [15]: reduced
